The values below come from a melting point compilation (Tetko et al.; mined from patent text by program, amines drawn as free bases though some values may be those of a salt).

What is called melting point is the temperature, or range, at which the solid turns liquid. Take `CCCn1c(=O)sc2cc(F)c(NC(=O)C=C(CC)NC(=O)OCC)cc21`: the melting point is 174 to 175 °C.
To `CCCCNC(=O)N(c1ccccc1)c1ccccc1` belongs 92 °C; to `O=C(O)Cn1nc(-c2ccccc2O)nc1-c1ccccc1O`, 231 to 233 °C.
For `Oc1ccc2cc(-c3csc(Cc4c(Cl)cccc4Cl)n3)ccc2c1` the value was 191 to 193 °C; for `COC(=O)C(C)=CC(C)=Cc1cc([N+](=O)[O-])ccc1Cl`, 88 to 90 °C.
For `COC(=O)C1=C(C)NC(C)=C(C(=O)OCC2CC2)C1c1cccc([N+](=O)[O-])c1` (configuration not stated) the value was 160 to 163 °C; for `ClCc1c(Cl)ccc2cc(Cl)cnc12`, 129 °C.
In turn, `Cc1ccccc1C(=O)CN1C(=O)C(NC(=O)Nc2cccc(-c3nnn[nH]3)c2)N=C(c2ccccc2F)c2cccc(C)c21` (configuration not stated) displayed a melting point of 216 to 220 °C.
For `Cc1ccc(-c2cc(NCCN(C)C)c3ccccc3n2)s1` the value was 103 to 105 °C; for `Cc1cc2cnn(-c3ccccc3)c2nc1OCc1ncnn1C`, 145 to 146 °C.
`COc1cccc2c1C(N)=NS2(=O)=O` returned a melting point of 270 °C.
For `CSc1cc2[nH]ccc2cc1F` the value was 51 °C; for `c1ccc2c(c1)C[C@H]1Cc3ccccc3[C@H]1O2` (relative stereo), 59 to 60 °C; for `CCCN(CCC)c1nc2c(N3CCCC3)nccc2c(=O)[nH]1`, 220 °C.
To `O=C1c2c(Cl)cccc2-n2cnc(-c3nc(C4CCC4)no3)c2[C@@H]2CCCN12` belongs 183 to 185 °C; to `Cn1cc(C2CCN(CCn3cnc4ccccc4c3=O)CC2)c2ccccc21`, 78 °C; to `CCn1c(=O)c2c(O)cc(=O)oc2c2ccc(Cl)cc21`, 276 to 278 °C.
For `CNCCCN(C)C(=O)[C@@H]1CCCN1S(=O)(=O)c1ccc(Cl)c(COc2cccc3c(-n4ccnc4)cc(C)nc23)c1Cl` the value was 125 °C; for `COC(=O)Oc1nc2c(N)ncnc2n1Cc1ccccc1`, greater than 300 °C; for `Clc1ccc(C(c2ccccc2)N2CCN(CCCn3cnc4ccccc43)CC2)cc1` (configuration not stated), 106 °C.
`COc1cc(OCc2nc(-c3ccco3)oc2C)ccc1COc1nn(Cc2ccccc2)cc1C=O` had a melting point of 147 to 148 °C.
On to `COC(=O)NC1CCN(c2ncc3ncnc(Nc4ccc(F)c(Cl)c4)c3n2)CC1`, for which the melting point is 195 to 197 °C.
For `O=C1NCCCCC1Cc1ccccc1` (configuration not stated) the value was 99 to 104 °C; for `COc1ccc(S(=O)(=O)N2C(=O)C(c3ccccc3OC)(N3Cc4ccccc4C[C@H]3C(=O)N(C)C)c3cc(Cl)c(C)cc32)c(OC)c1` (some centres not stated), 160 °C; for `C[C@](O)(CNC(=O)c1cnc(OCC(F)(F)F)c(-c2ccc(Cl)cc2)n1)C1CC1`, 96 to 97 °C.
For `CC1(C)OC[C@H](COc2nc(S(C)(=O)=O)nc3[nH]nc(-c4ccccc4Cl)c23)O1` the value was 161 to 162 °C.
For `N#Cc1ccc2c(c1)C(=C(Cl)Cl)OC(=C(Cl)Cl)O2` the value was 167 to 168 °C; for `CC(=O)Oc1cccc(-c2csc3nc(C45CC6CC(CC(C6)C4)C5)cn23)c1`, 199 to 201 °C.
As to `S=C(NCCN(Cc1ccc(Cl)c(Cl)c1)c1ccc(Br)cn1)Nc1ccc(N2CCCCC2)cc1`, the melting point fell in the range of 146 to 148 °C.
For `COC(=O)c1c(SCc2ccccc2)n[nH]c1C` the value was 109 to 110 °C.
To `COC(=O)C1CCc2cc(C(=O)c3ccccc3Cl)c(O)cc21` (configuration not stated) belongs 188 to 190 °C; to `CCCC(CCC)C(=O)c1ccc(O)c(C(=O)O)c1`, 118 °C.
Compound `Cc1cc(=O)c(C(=O)O)c(C)o1` gave a melting point of 98 °C.
To `CCCCOCCOc1ccc(-c2ccc3c(c2)C=C(C(=O)OC)CCN3c2ccc(S(=O)(=O)N(C)C)cc2)cc1` belongs 150 to 153 °C.
To `COC(=O)C1(NC(=O)Cc2cc(-c3ccc(Cl)cc3)ccc2Cl)CCCCC1` belongs 124 °C; to `COc1cc(C=CC(=O)Nc2ccccc2C(=O)O)ccc1O`, 208 °C; to `CCCc1nc(C)nc(Cl)c1Cc1ccc([N+](=O)[O-])cc1`, 65 °C.
To `COc1ccc(C(=O)Nc2ccc(F)cc2)cc1NS(=O)(=O)c1cccc([N+](=O)[O-])c1` belongs 221 to 240 °C.
Compound `CC(=O)Nc1sc2c(c1C(=O)c1ccccc1)CCCC2` returned a melting point of 116 to 119 °C.
In turn, `COc1cc(NC(=O)CC23CC4CC(CC(C4)C2)C3)c(C)c([N+](=O)[O-])c1` returned a melting point of 141 to 142 °C.
In turn, `COc1cc(/C=C/C(=O)Nc2ccccc2C(=O)O)ccc1OCc1cn(CC(=O)Nc2ccccc2)nn1` showed a melting point of 220 to 222 °C.
`COC(CBr)(CCCC(=O)NN)OC` came in with a melting point of 58 to 60 °C.
Turning to `CCCCNC(=O)c1cccc(S(=O)(=O)NC(=O)c2ccc(C(=O)NCC(=O)O)nc2)c1`, the melting point amounted to 220 °C.
To `ClCCCOc1ccc(SCCCCl)cc1` belongs 112 °C; to `O=C(c1ccc(Cl)cc1)c1c(Cl)cc2n1CCC2C(=O)O` (configuration not stated), 197 °C; to `CCN(CC)CCNC(=O)c1c2ccccc2nc2ccc(I)cc12`, 83 to 85 °C.
To `COCC1OC(n2cnc3c(Cl)nc(Cl)nc32)C(OC(C)=O)C1OC(C)=O` (configuration not stated) belongs 59 to 61 °C; to `O=C(O)c1ccc2oc(=O)n(Cc3ccc4[nH]c(=O)[nH]c4c3)c2c1`, 230 to 231 °C; to `Cc1cccc(CN2CCc3ccc(C(=O)CCC(=O)N4CCC(c5ccc(Cl)cc5)CC4)cc3CC2)c1`, 127 to 128 °C.
To `Cc1cccc(-c2nn(C)cc2-c2ccc(F)c(-c3ccc(S(C)(=O)=O)cc3)c2)n1` belongs 66 to 67 °C; to `CCCC[C@H](NC(=O)[C@H](CCC)NC(=O)OCc1ccccc1)C(=O)CSCc1ccco1`, 95 to 96 °C.
`Cc1c(Cc2ccc(C(C)C)cc2)c2c(c(C)c1NC(=O)CC(C)(C)C)CC(C)(CN1CCCC1)O2` (configuration not stated): the melting point fell in the range of 143 to 144 °C.
To `Cc1cccc2c1NC(=O)c1cccnc1N2` belongs 233 to 235 °C; to `C=CCOC(=O)Nc1cc(-c2cccc(Cl)c2)sc1C(=O)OC`, 101 to 103 °C; to `O=C(Nc1nc(C(F)(F)F)c(I)s1)c1cc(C(F)(F)F)cc(C(F)(F)F)c1`, 172 to 173 °C.
With `NC(=O)Cc1ccc2ccn(C3CCN(CCc4ccc(F)cc4F)CC3)c2c1`, the melting point is 157 to 158 °C.
To `CCOC(=O)c1c[nH]c2cc(-c3cc(C)nc(C)c3)c(F)cc2c1=O` belongs greater than 300 °C; to `N#Cc1cncc(OC2SCC(O)C(O)C2O)c1` (configuration not stated), 149 °C.
To `CC(C)CCCC(C)C1CCC2=C3C(=O)CC4C(C)(C)C(OC(=O)c5ccccc5)CCC4(C)C3CCC21C` (configuration not stated) belongs 189 to 190 °C.
For `CSc1cc(C)nc(SC)c1NC(=O)CCCBr` the value was 139 to 140 °C; for `CC(C)CC(=O)C(=O)NCC(=O)c1ccccc1`, 193 to 195 °C; for `CCCCCCCCCCCCc1nnn(C(CCCC)C(=O)Nc2c(OC)cc(OC)cc2OC)n1` (configuration not stated), 152 to 154 °C.
